The text below walks through data of patent publication US7439251B2, “Methods and compositions for treatment of central and peripheral nervous system disorders and novel compounds useful therefor” (Israel Institute for Biological Research, priority 2002, dated 2008).

Where a chain is given by its changes, count along the chain named.

Series [1] is described as follows: Pharmacokinetic study in rats. Format: in vivo, rat. The following applies: for bioavailability: rat, plasma, Rats, po, read-out: Bioavailability (% F). An excerpt: (§1) The results of the PK profile of AF292 in rats and Beagle dogs (overnight fasting; drug administered in water solution; gavage) are listed in Table 1.
The target of another series is T1, M1 mAChR (Rattus norvegicus, UniProt P08482).
T1 construct: expressed in transfected cells
T1 sequence (P08482 1-460): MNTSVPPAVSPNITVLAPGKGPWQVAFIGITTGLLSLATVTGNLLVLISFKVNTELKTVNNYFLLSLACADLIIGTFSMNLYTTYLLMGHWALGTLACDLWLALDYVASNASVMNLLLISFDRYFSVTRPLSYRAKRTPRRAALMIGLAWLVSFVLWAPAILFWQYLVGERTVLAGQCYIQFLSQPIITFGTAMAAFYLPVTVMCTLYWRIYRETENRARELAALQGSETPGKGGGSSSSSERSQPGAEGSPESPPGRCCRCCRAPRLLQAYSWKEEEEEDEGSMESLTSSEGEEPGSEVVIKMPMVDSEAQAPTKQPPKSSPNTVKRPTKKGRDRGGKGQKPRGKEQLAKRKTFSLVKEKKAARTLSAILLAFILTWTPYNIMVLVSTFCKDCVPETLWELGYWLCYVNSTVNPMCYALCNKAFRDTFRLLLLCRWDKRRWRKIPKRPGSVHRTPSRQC
Nature of the series: α-APPs secretion in cell cultures stably transfected with M1 mAChR. Format: cell-based. The following applies: for α-APPs secretion (% of max CCh): maximal response vs 10^−4 M carbachol. How it is done: Cells were plated in 6 well culture plates and used at the age of 3-5 days after plating. […] Cells exposed to medium alone are referred as controls.
Cell supernatants were collected into Eppendorff tubes containing a cocktail of protease intubitors (5 units/ml aprotinin, […], 5 mg/ml leupeptin and 10^−4 M Phenylmethylsulfonylfluoride (PMSF, a protease inhibitor); Sigma, USA). The collected media were concentrated with Centricon tubes (Amicon, Beverly, Mass., USA) and kept frozen for α-APPs secretion determination. Equal amounts of protein (50-100 μg) were loaded and separated on 10% sodium dodecyl sulfate-polyacrylamide gel electrophoresis (SDS-PAGE) Followed by western blotting onto nitrocellulose membrane, blocked by fat-free milk, and probed for 24 hours at 4° C., with anti-Alzheimer's precursor protein, A4 monoclonal antibody 22C11 (0.25 μg/ml; Boehringer Mannheim, Germany). The nitrocellulose membranes were washed and incubated for 2 hours at room temperature with peroxidase-linked goat anti-mouse IgG antibodies (Jackson Immunoresearch, USA), followed by extensive washout and staining with enhanced chemiluminescence detection system (Amersham). Quantitative evaluation of the immunoreactive bands, on the exposed films, was performed by video-imaging densitometry (Gel-aid software; Galai Co., Israel). APPs levels were expressed as x-fold increase over basal levels.

The subject of series [2] is rat pheochromocytoma cells transfected with the M1 mAChR.
The conditions of series [3]: mouse, in vivo.
In series [4] the test system is rat pheochromocytoma cells transfected with M1 mAChR. The series can be described thus: Neurite outgrowth in rat pheochromocytoma cells transfected with M1 mAChR. It counts as cell-based. The conditions noted are these: 24 hrs, without neurotrophins.
Description: For determination of neurite outgrowth, cells plated in six-well plates were used 3-5 days after plating. Growth factors were added 1 day after plating and muscarinic agonists were added for the last 24 hrs.
Cells were observed under an inverted microscope. The percent of cells with neurite longer than cell diameter were scored in three random fields of several hundred cells from each well. Results were expressed as a percent of cells with neurites. Treatments were performed in triplicate cells. Both NGF (50 ng/ml) and EGF (100 ng/ml) were added 1 day after plating. Muscarinic agonists were added 24 hours before scoring.
Series [5] can be described thus: Pharmacokinetic study in dogs. The following applies: for bioavailability: Beagle, dog, plasma, po, read-out: Bioavailability (% F). Format: in vivo, Beagle dog.
Description: as §1

Series [6] is described as follows: Plasma levels of AF267B and its metabolite AF292 in dogs given AF267B (single dose and 13 weeks). Format: in vivo, Beagle dog. An excerpt: Internal Standard (AF261): 2-Methyl-8-methyl-1-thia-4,8-diaza-spiro[4.5]decan-3-one; MW 200. The analytical plasma samples originate from the in-life part of this study.
A further series concerns the target T2, human M1 receptor (Homo sapiens, UniProt P11229).
T2 construct: expressed in transfected cells
T2 sequence (P11229 1-460): T1 sequence (P08482 1-460) with V5A, S254T, S309P, K320R, G337A, V413I
The series can be described thus: PI hydrolysis, human M1. It counts as cell-based.

The mark [7] stands for this setting: dogs, after 13 weeks daily AF267B 1.5, 3, 6 mg/kg po.
[8] abbreviates: female dogs, 13 weeks AF267B 1.5, 3, 6 mg/kg p.o.
Where [9] appears, read: female dogs, single dose (1×) of AF267B 1.5, 3, 6 mg/kg p.o.
The mark [10] stands for this setting: male dogs, 13 weeks AF267B 1.5, 3, 6 mg/kg p.o.
Where [11] appears, read: male dogs, single dose (1×) of AF267B 1.5, 3, 6 mg/kg p.o.

For the compound `CC1=NCC2(CCN(C)CC2)S1` [AF150(S), 2,8-Dimethyl-1-thia-3,8-diaza-spiro[4.5]dec-2-ene], the biovailability in rats in series [1] is recorded as 31%. In addition, the “α-APPs secretion (% of max CCh)” value at M1 mAChR worked out at 50%. In series [2], the H2O2-induced toxicity result is given as “protect the cells” and the “cell death induced by β-A25-35 (MTT)” value is “significantly attenuated”. Besides, the “Tmax / peak in brain” value in series [3] is 0.017 to 0.167 h. Moreover, the brain penetration time in series [3] (iv) stood at 1 min. Further, the “Maximal neurite outgrowth response (percent of cells with neurites)” value in series [4] stood at 30%.
Consider `CC[C@@H]1SC2(CCN(C)CC2)NC1=O` [AF267B, (S)-2-ethyl-8-methyl-1-thia-4,8-diaza-spiro[4.5]decan-3-one], for which the bioavailability in series [5] (Dogs., 1 mg/kg, p.o.) was 53%; in series [1] (calculated for 2 mg/kg) it was 30%. For the same compound, the Tmax in series [5] (Dogs., 1 mg/kg, p.o.) was in the range of 0.58 to 0.75 h; in series [6] (setting [7]) it was 1.5 to 3 h. Further, the “α-APPs secretion, comparison in words” value on M1 mAChR is “more efficacious and more potent than its racemate”. For the same compound, the “α-APPs secretion, fold increase over control” value at M1 mAChR (10^−4 M, 1 hour) was “about 6 fold”. Moreover, the “AUC(0-t)” value in series [6] (setting [7]) is 0.712 to 3.947 µg·h/mL. Besides, the Cmax in series [6] (setting [7]) was 0.162 to 1.352 µg/mL. The plasma half life in series [6] (setting [7]) lay within 1 to 2 h. The “MRT (area)” value is 3.6 to 5.2 h in series [6] (female dogs, 13 weeks); 4.7 to 5.3 h in series [6] (female dogs, single dose (1×)); 3.0 to 4.2 h in series [6] (male dogs, 13 weeks); 3.8 to 5 h in series [6] (male dogs, single dose (1×)). In addition, the “AUC(0-inf)” value in series [6] (setting [8]) was in the range of 1.033 to 4.164 µg·h/mL; in series [6] (setting [9]) it was 0.985 to 3.179 µg·h/mL; in series [6] (setting [10]), 1.041 to 4.471 µg·h/mL; in series [6] (setting [11]) it was 0.8 to 3.691 µg·h/mL. Also, the H2O2-induced toxicity entry in series [2] was “protect the cells”. For the same compound, the “cell death induced by β-A25-35 (MTT)” value in series [2] was “significantly attenuated”. Further, the “Tmax / peak in brain” value in series [3] was in the range of 0.333 to 0.5 h. Moreover, in series [3], the “time after dosing detected in the brain” value was in the range of 2 to 240 min. The “PI turnover vs. CCh (as 100%)” value at human M1 receptor is ~66%. Further, the “Maximal neurite outgrowth response (percent of cells with neurites)” value in series [4] is recorded as 60%.
As for `CC[C@@H]1SC2(CCNCC2)NC1=O` [AF292, (S)-2-Ethyl-1-thia-4,8-diaza-spiro[4.5]decan-3-one], the bioavailability was 70% in series [5] (Dogs, 5 mg/kg. p.o.) and 49% in series [1] (10 mg/kg, p.o.). The biovailability in rats in series [1] was 49%. Further, the “α-APPs secretion, comparison in words” value on M1 mAChR was “Equipotent with AF267B”. In addition, the “α-APPs secretion (% of max CCh)” value at M1 mAChR is given as 100%. For the same compound, the “Cmax vs. the Cmax of AF267B” value in series [6] (dogs) was 50-90%. Besides, the “T1/2 in plasma, times longer than AF267B” value in series [6] (dogs) is listed as 3-5 times. The “AUC(0-t)” value in series [6] (setting [7]) lay within 0.616 to 2.451 µg·h/mL. For the same compound, the Cmax in series [6] (setting [7]) lay in the range of 0.136 to 0.555 µg/mL. Moreover, in series [6] (setting [7]), the plasma half life lay within 9 to 20 h. Besides, the “MRT (area)” value in series [6] (female dogs, 13 weeks) lay within 5.1 to 33.7 h; in series [6] (female dogs, single dose (1×)), 8.7 to 18.7 h; in series [6] (male dogs, 13 weeks) it was 5 to 7.8 h; in series [6] (male dogs, single dose (1×)) it was 5 to 27.3 h. Moreover, the “AUC(0-inf)” value is “F(13 w): 1866-12723; M(13 w): ng * h/ml” in series [6] (setting [8]); “F (1×): outlier, 3901-4840; M (1×): ng * h/ml” in series [6] (setting [9]); 1.609 to 4.17 µg·h/mL in series [6] (setting [10]); 1.142 to 10.932 µg·h/mL in series [6] (setting [11]). The “Elimination half life, Mean T½ (M)” value in series [6] (male dogs) is listed as “Mean T½ (M) = 6.34 +/− 5.9; h”. In addition, the H2O2-induced toxicity entry in series [2] is given as “protect the cells”. Further, the “MTT assay against Aβ 25-35 & H2O2 in cell cultures transfected with rat M1 mAChR” value in series [2] is listed as “Equipotent with AF267B & CCh at 100”. Further, the “cell death induced by β-A25-35 (MTT)” value in series [2] is listed as “significantly attenuated”. For the same compound, the “PI turnover vs. CCh (as 100%)” value on human M1 receptor is on record as ~35%.
